Measurements as given in patent US9222093B2, “Two-way, portable riboswitch mediated gene expression control device” (THE UNIVERSITY OF HONG KONG, priority 2011, dated 2015).

Tests used:
wild type strain = test: Extracellular acetate assimilation, wild type strain; format: cell-based, E. coli; settings: data not shown
Description: (§1) Bacterial cells switch from rapid growth during which they produce and excrete acetate (dissimilation) in the presence of abundant nutrients to slower growth supported by the import and utilization of the excreted acetate (assimilation) when glucose is exhausted. This physiological event is defined as an acetate switch, a survival response allowing cells to compete successfully during carbon starvation. It was previously reported that RpoS positively regulates consumption of acetate by activating the expression of acetyl-coenzyme A synthetase enzyme (Acs). However, the opposite results were obtained with ON-lacI-rpoS construction provided herein. […] When grown in the presence of theophylline (2 mM) and absence of IPTG, rpoS expression was shut off and accordingly, acetate assimilation was accelerated (FIG. 8A). […] The enhanced acetate assimilation was also observed with the newly constructed rpoS gene locus null mutant, shown in graph 804 (FIG. 8B). […] It is therefore apparent that RpoS represses acetate assimilation.

LacI repressor protein = target: T1, LacI repressor protein (Escherichia coli, UniProt P03023); test: β-galactosidase assay of lacZ in cells carrying ON-lacI riboswitch and intact lacZ (IPTG arm of two-way control); format: cell-based, E. coli MG1655; settings: medium containing 1600 μM theophylline
T1 construct: ON-lacI riboswitch 302 was incorporated into the chromosome upstream from intact lad gene (i.e., not fused with lacZ); endogenous in cells; host or cells: E. coli MG1655 derivative with ON-lacI riboswitch on the chromosome and intact lacZ locus
T1 sequence (P03023 whole entry, the tested form may be a part): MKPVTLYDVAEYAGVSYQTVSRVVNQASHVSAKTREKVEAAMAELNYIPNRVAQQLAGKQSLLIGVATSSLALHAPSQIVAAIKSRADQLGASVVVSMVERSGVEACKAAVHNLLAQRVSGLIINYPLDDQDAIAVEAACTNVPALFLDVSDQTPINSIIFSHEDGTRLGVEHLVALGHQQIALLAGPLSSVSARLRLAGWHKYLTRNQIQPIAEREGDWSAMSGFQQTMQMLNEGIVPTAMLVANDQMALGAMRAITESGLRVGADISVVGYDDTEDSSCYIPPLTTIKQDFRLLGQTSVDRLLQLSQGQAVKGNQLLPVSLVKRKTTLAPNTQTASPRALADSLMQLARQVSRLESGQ
Description: (§2) The loxP-cat-loxP selectable cassette was inserted immediately after the stop codon of the lacZ gene on the MG1655 chromosome using recombineering methods. Next, the lacZ-loxP-cat-loxP cassette was PCR amplified and inserted (in frame) immediately prior to the stop codon of the target gene on the chromosome. The inserted lacZ fragment started from the 8th codon of the lacZ gene, and was co-transcribed and translated with the fused genes. The expression of gene-lacZ fusions was quantified using a β-galactosidase assay. Levels of β-galactosidasewere calculated using the following formula: units (U)=[…]
ON-lacI riboswitch 302 makes two-way gene regulation possible because the Lad repressor protein can be inactivated by isopropyl β-D-1-thiogalactopyranoside (IPTG). Thus, adding theophylline to the culture medium switches on lacI translation, and transcriptionally represses the target genes of LacI. In contrast. IPTG inactivates LacI by binding to the protein and derepresses transcription of the target genes.
Two-way control was verified by determining β-galactosidase levels of the cells carrying both ON-lacI riboswitch 302 and an intact lacZ gene locus. Theophylline and IPTG regulated lacZ in opposite directions in a concentration-dependent manner (graph 312, FIG. 3D). The effective concentration range of theophylline was 100-1600 μM. […]

ON-lacI-rpoS cells = test: Extracellular acetate assimilation; format: cell-based, E. coli
Description: as §1

CsrB locus = test: Autoaggregation and biofilm formation of ON-lacI strain harboring pLacIb-CsrB; format: cell-based, E. coli
Description: CsrB locus 706 has previously been cloned into a high copy vector (plasmid) 704. Two LacIbs 112 were inserted around the transcriptional start site to place expression of CsrB locus 706 under the control of ON-lacI riboswitch 302. Since one LacIb is after the transcriptional start site, the resulting CsrB differs slightly from the native one by the extra 21 nt-sequence (i.e. LacIb). […] This CsrB-carrying vector 704 was introduced into the ON-lacI strain, and autoaggregation and biofilm formation were examined.
To measure autoaggregation, overnight cultures were diluted 1:500 and incubated at 37° C., with shaking at 220 rpm, in liquid LB medium. When cells aggregated (visualized macroscopically by the clumping or ‘fluffing’ of cells in liquid cultures), 100 μl of each cell suspension was transferred to flat-bottom 96-well plates (Iwaki, Tokyo, Japan) and the images of the cell aggregates were captured by scanning. To better visualize the cell aggregates, 1 μl of crystal violet (0.1%) was added to each cell suspension immediately prior to image capture. Cellular autoaggregation was also examined microscopically. Cell suspensions were spread on a microscope slide, heat-fixed, stained with DAPI (4′6-diamidino-2-phenylindol), and imaged using a fluorescence stereomicroscope SZX12 (Olympus, Tokyo, Japan) with DAPI filter sets.
Biofilms were formed on polystyrene, flat-bottom 96-well microtiter plates (Iwaki, Tokyo, Japan). 200 μl of each cell suspension (10^5 cells/ml) was transferred into each well of a microtiter plate, and incubated for 24 h at 37° C. in a shaker at 75 rpm. Resulting biofilms were washed thrice with PBS and air dried. Then, biofilms were stained with […] of 0.4% aqueous crystal violet solution for 15 min. Next, biofilms were washed three times with sterile distilled water and immediately destained with 200 μl of 95% ethanol. After 30 min of destaining, 100 μl of destaining solution was transferred to a new well and measured with a microtiter plate reader (SpectraMAX®340 Tunable Microplate Reader; Molecular Devices Ltd.) at 595 nm.

rpoS gene locus = test: Acid survival of ON-lacI-rpoS strain (pH 2.0, 2 hours); format: cell-based, E. coli
Description: The ON-lacI-LacIbs cassette (2500 bp) from the genome of the strain carrying the ON riboswitch of lacI is amplified using […]. Cassette 602 is composed of the cat gene, the ON-lacI riboswitch, the lacI gene, and the lacI-lacZ intergenic region containing two LacIbs. The cat gene facilitates integration of this cassette immediately upstream of any target gene via recombineering. The riboswitch cassette was inserted upstream of the ribosomal binding site of rpoS gene locus […] (FIG. 6A). Next, the native lacI was deleted from this strain, generating a new mutant strain, ON-lacI-rpoS. This strain was used to test whether rpoS gene locus 606 could be controlled by the theophylline-responsive and LacI-repressible regulation cassette 602. Since rpoS is required for acid resistance, survival of strain […] under acidic conditions was assayed. Overnight cultures were treated with acid (pH 2.0) for 2 hours, and then serially diluted in neutral medium. After culturing overnight, colony forming units (CFU) of acid-treated and untreated cells were determined Acid survival (%) was calculated using the formula: Acid survival (%)=100×(CFU of treated/CFU of untreated).

ON-lacI riboswitch = test: β-galactosidase assay of lacZ in cells carrying ON-lacI riboswitch and intact lacZ (theophylline arm of two-way control); format: cell-based, E. coli MG1655
Description: as §2
ON-lacI riboswitch 302 was incorporated into the chromosome upstream from intact lad gene (i.e., not fused with lacZ). The LacI protein represses expression of lacZ so that ON riboswitch 302 indirectly switches off lacZ in response to theophylline.
Two-way control was verified by determining β-galactosidase levels of the cells carrying both ON-lacI riboswitch 302 and an intact lacZ gene locus. Theophylline and IPTG regulated lacZ in opposite directions in a concentration-dependent manner (graph 312, FIG. 3D). The effective concentration range of theophylline was 100-1600 μM. […] When IPTG was added to the medium containing 1600 μM theophylline, lacZ was derepressed. The effective range of IPTG was 0.16-40 μM.

lacI-lacZ fusion = test: β-galactosidase assay of lacI-lacZ translational fusion; format: cell-based, E. coli MG1655; settings: E. coli mutant containing ON-lacI riboswitch; with vs without theophylline
Description: as §2
To engineer an ON-riboswitch of the lacI gene, riboswitch cassette 302, cat-aptamer-linker-random sequence, was integrated upstream of the ribosomal binding site of lacI-lacZ usion 304 on the chromosome using standard recombineering methods (FIG. 3A).
The resulting mutant collection was grown on X-gal plates 306 in the absence of theophylline. Approximately 2000 colonies were screened for color. Two white clones were identified. […]

ON-crp strain = test: Motility of ON-crp strain on semisolid motility plates; format: cell-based, E. coli MG1655; settings: theophylline ligand added; increased with higher theophylline concentrations
Experimental: The motility phenotype of the ON-crp strain was assayed to further confirm the effectiveness of the ON-riboswitch.

[1] = in the presence of theophylline

SMILES	effect on acetate assimilation in the wild type strain (wild type strain)	effective range of IPTG (lacZ derepression) (LacI repressor protein)	acetate assimilation (ON-lacI-rpoS cells; IPTG 1 mM added to the theophylline medium)	autoaggregation and biofilm formation (CsrB locus; IPTG added together with theophylline)	acid survival (rpoS gene locus; 40 μM IPTG in medium containing 1600 μM theophylline)	acetate assimilation (ON-lacI-rpoS cells; theophylline 2 mM, absence of IPTG)	lacZ expression in the presence of theophylline (ON-lacI riboswitch; ON-lacI combined with LacIbs upstream from lacZ)	effective concentration range of theophylline (lacZ regulation) (ON-lacI riboswitch; cells carrying ON-lacI riboswitch and intact lacZ, repression, saturation above the range)	lacZ regulation at theophylline concentrations less than 100 μM (ON-lacI riboswitch; theophylline less than 100 μM)	LacI levels in the presence of the ligand (lacI-lacZ fusion)	autoaggregation (CsrB locus; [1])	biofilm formation (CsrB locus; [1])	acid survival (rpoS gene locus; 1600 μM theophylline)	motility (ON-crp strain)
CC(C)S[C@@H]1O[C@H](CO)[C@H](O)[C@H](O)[C@H]1O [IPTG, isopropyl β-D-1-thiogalactopyranoside]	Neither theophylline nor IPTG had any effect	0.16 to 40 µM	restored to the wild-type levels	restored	restored to the wild-type levels									
Cn1c(=O)c2[nH]cnc2n(C)c1=O [theophylline]	Neither theophylline nor IPTG had any effect					accelerated	almost completely repressed	100 to 1600 µM	little regulation	one fold-increase	negative with respect to autoaggregation	low levels of biofilms	comparable to that of an rpoS null mutant	gained motility
